“Also recorded” adds a separate entry of the source.

System in one series: not listed separately
Briefly: Light stability and hydrophobicity observed during development. The format is physicochemical. Particulars: light exposure.
As for `CC=CC=CC=CC=CC=CC(=O)O` [DDPA, dodeca-2,4,6,8,10-pentaenoic acid], the photostability entry was “photolabile; also recorded: photodecomposition leads to a loss of potency”.

The target in another series is T1, AHR (Homo sapiens, UniProt P35869).
T1 sequence (P35869 11-848): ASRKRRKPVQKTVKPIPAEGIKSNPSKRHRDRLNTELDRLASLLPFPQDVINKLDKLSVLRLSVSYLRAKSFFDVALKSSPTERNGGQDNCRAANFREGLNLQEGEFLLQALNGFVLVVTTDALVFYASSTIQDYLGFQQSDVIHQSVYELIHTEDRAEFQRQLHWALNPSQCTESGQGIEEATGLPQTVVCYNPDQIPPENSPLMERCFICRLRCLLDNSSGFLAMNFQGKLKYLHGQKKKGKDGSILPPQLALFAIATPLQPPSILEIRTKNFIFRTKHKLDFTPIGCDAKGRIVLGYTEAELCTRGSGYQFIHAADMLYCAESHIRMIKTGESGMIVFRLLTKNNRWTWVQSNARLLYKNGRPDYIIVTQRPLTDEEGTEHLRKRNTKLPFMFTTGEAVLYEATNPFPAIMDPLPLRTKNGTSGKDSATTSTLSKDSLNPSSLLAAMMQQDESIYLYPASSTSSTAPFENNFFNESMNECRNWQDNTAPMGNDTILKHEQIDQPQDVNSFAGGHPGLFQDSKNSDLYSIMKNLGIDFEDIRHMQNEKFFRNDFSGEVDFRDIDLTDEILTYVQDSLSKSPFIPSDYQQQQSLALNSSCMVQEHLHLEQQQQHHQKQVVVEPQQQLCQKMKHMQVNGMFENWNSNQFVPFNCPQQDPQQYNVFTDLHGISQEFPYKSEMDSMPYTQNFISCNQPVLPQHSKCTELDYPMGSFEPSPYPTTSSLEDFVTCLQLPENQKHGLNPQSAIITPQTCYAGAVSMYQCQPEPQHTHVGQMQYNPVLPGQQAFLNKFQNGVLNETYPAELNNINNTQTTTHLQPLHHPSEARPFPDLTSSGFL
Assay: not given
Conditions: AHR ligand activity; Table 1 reproduced from Barroso A et al., 2021; cited from earlier work.
As to `CCCCC/C=C\C[C@@H](O)/C=C/C=C\C/C=C\CCCC(=O)O`, the Activity entry was “Agonist”. As for `COc1cc(-c2cc(=O)c3ccccc3o2)ccc1[N+](=O)[O-]` [3′-methoxy-4′-nitroflavone (MNF), 3′-methoxy-4′-nitroflavone], the Activity result is recorded as “Antagonist”. Regarding `Cc1cc(Cl)cc2c1oc1cc(Cl)cc(Cl)c12` [6-Methyl-1,3,8-trichlorodibenzofuran], the Activity entry is on record as “Partial”. On to `O=Cc1c2c(cc3c1=Nc1ccccc1-3)=Nc1ccccc1-2` [6-Formylindolo [3,2-b] carbazole (FICZ), 6-Formylindolo [3,2-b] carbazole], for which the Activity entry is recorded as “Agonist”. On to `COc1cc2c(cc1O)C[C@@H]1NCCc3cc(OC)c(O)c-2c31` [Norisoboldine], for which the Activity result is recorded as “Agonist”. Turning to `Nc1c(C(=O)O)c2nc3c(C(=O)O)cccc3oc-2cc1=O` [Cinnabarinic acid (CA), Cinnabarinic acid], the Activity entry is “Agonist”. Take `c1ccc2c(Cc3[nH]c4ccccc4c3Cc3c[nH]c4ccccc34)c[nH]c2c1` [2-(Indol-3-ylmethyl)-3,39-diindolylmethane]: the Activity entry is on record as “Agonist”. Consider `O=Cc1c[nH]c2ccccc12` [Indole-3-aldehyde (I3CA), Indole-3-aldehyde], for which the Activity entry is on record as “Agonist”. `Nc1ccccc1C(=O)C[C@H](N)C(=O)O` [L-Kynurenine (Kyn), L-Kynurenine]: the Activity result was “Agonist”. For the molecule `O=C(O)[C@H]1O[C@@H](Oc2cc3oc(-c4ccccc4)cc(=O)c3c(O)c2O)[C@H](O)[C@@H](O)[C@@H]1O` [Baicalin], the Activity entry is “AntAgonist”. On to `O=Cc1c(Cc2c[nH]c3ccccc23)[nH]c2ccccc12` [Malassezin], for which the Activity entry is given as “Agonist”. For the molecule `O=c1cc(-c2ccccc2)oc2ccc3ccccc3c12` [Beta-naphthoflavone], the Activity result was “Agonist”.

As for `O=C1c2ccccc2-n2c1nc1ccccc1c2=O` [Tryptanthrin], the Activity entry is “Agonist”. Consider `CC(C)c1c(O)cc(/C=C/c2ccccc2)cc1O` [Tapinarof, 3,5-dihydroxy-4-isopropyl-trans-stilbene], for which the Activity entry was “Agonist”.

As for `N[C@@H](Cc1c[nH]c2ccc(O)cc12)C(=O)O` [5-hydroxytryptophan (5HTP), 5-hydroxytryptophan], the Activity entry was “Agonist”. For `COC(=O)c1csc(C(=O)c2c[nH]c3ccccc23)n1` [2-(19H-indole-39-carbonyl)-thiazole-4-carboxylic acid methyl ester], the Activity entry is “Agonist”. For the molecule `FC(F)(F)c1ccc(Nc2nccc(-c3cccc(Cl)c3)n2)cc1` [VAF347], the Activity entry is recorded as “Agonist”. With `Clc1cc2c(cc1Cl)Oc1cc(Cl)c(Cl)cc1O2` [2,3,7,8-Tetrachlorodibenzop-dioxin], the Activity entry is “Agonist”.

Turning to `N#CCc1c[nH]c2ccccc12` [Indole-3-acetonitrile (IAN), Indole-3-acetonitrile], the Activity result is “Agonist”. In the case of `Cc1c[nH]c2ccccc12` [3-Methylindole (Skatole), 3-Methylindole], the Activity result was “Partial”. Take `OCc1c[nH]c2ccccc12` [Indole-3-carbinol (I3C), Indole-3-carbinol]: the Activity entry is recorded as “Agonist”.

With `CCCCC[C@H](O)/C=C/C=C\C=C\C=C\[C@@H](O)[C@@H](O)CCCC(=O)O` [Lipoxin A4], the Activity result is recorded as “Agonist”. For the molecule `C=CC1=C(C)/C(=C/C2=NC(=C\c3[nH]c(/C=C4\NC(=O)C(C)=C4C=C)c(C)c3CCC(=O)O)/C(CCC(=O)O)=C2C)NC1=O` [Biliverdin], the Activity result is recorded as “Agonist”. With `c1ccc2c(Cc3c[nH]c4ccccc34)c[nH]c2c1` [3,3-diindolylmethane (DIM), 3,3-diindolylmethane], the Activity entry was “Agonist”. Regarding `CC(C)n1cnc2c(NCCc3ccc(O)cc3)nc(-c3csc4ccccc34)nc21` [StemRegenin 1 (SR1), StemRegenin 1], the Activity result is listed as “AntAgonist”.

For `CC1=C(CC(=O)O)c2cc(F)ccc2/C1=C\c1ccc([S+](C)[O-])cc1` (stereo not shown) [Sulindac], the Activity result is “Agonist”. With `NCCc1c[nH]c2ccccc12` [Tryptamine], the Activity entry was “Agonist”. For `c1ccc2c(c1)N=c1cc3c(cc1-2)=Nc1ccccc1-3` [Indolo [3,2-b]carbazole (ICZ), Indolo [3,2-b]carbazole], the Activity entry is reported as “Agonist”.

As for `O=C(O)c1cc(O)c2ccccc2c1O` [1,4-dihydroxy-2-naphthoic acid (DHNA), 1,4-dihydroxy-2-naphthoic acid], the Activity result was “Agonist”. Consider `O=c1c(O)c(-c2ccc(O)c(O)c2)oc2cc(O)cc(O)c12` [Quercetin], for which the Activity entry is “Partial”.

Consider `COc1ccc(-c2cc(=O)c3ccccc3o2)cc1OC` [3′4′-Dimethoxyflavone], for which the Activity result is recorded as “Partial”. With `O=C(O)c1cc(O)c2cccc(O)c2n1` [Xanthurenic acid], the Activity result was “Agonist”. For the molecule `Cc1ccccc1N=Nc1ccc(NC(=O)c2ccnn2C)c(C)c1` [CH-223191], the Activity result was “AntAgonist”. As to `CC(C)c1cnn2c(N[C@@H]3CCc4[nH]c5ccccc5c4C3)nc(-c3cncc(F)c3)nc12` [AHR antagonist 5 (IK-775)], the Activity result is on record as “Antagonist”. Take `Cc1ccc2cc3c(ccc4ccccc43)c3c2c1CC3` [3-Methylcholanthrene]: the Activity result is “Agonist”. As for `O=S(=O)(O)Oc1c[nH]c2ccccc12` [Indoxyl-3-sulfate (I3S), Indoxyl-3-sulfate], the Activity result is given as “Agonist”.

The same series, now with this note: cited from earlier work.
For the molecule `O=C(O)Cc1ccccc1Nc1c(Cl)cccc1Cl` [Diclofenac], the Activity entry was “Agonist”. On to `c1ccc2[nH]ccc2c1` [Indole], for which the Activity result is on record as “Agonist”.

The next series concerns psoriasis and AD.
Assay: not given
Particulars: humans; cited from earlier work.
`CC(C)c1c(O)cc(/C=C/c2ccccc2)cc1O` [Tapinarof, 3,5-dihydroxy-4-isopropyl-trans-stilbene]: the “effectiveness for treatment of psoriasis and AD” value is on record as “effective”.

These data come from patent publication US20250235422A1 (BiomEdit, Inc., priority 2024, published 2025).
